The term IC50 denotes the concentration needed to halve the response being measured. In general, Ki refers to a measure of affinity in units of concentration, obtained from inhibition or displacement.

Assay [1] deals with T1, Neuropeptide Y receptor type 2 (Homo sapiens, UniProt P49146).
T1 sequence (P49146 whole entry): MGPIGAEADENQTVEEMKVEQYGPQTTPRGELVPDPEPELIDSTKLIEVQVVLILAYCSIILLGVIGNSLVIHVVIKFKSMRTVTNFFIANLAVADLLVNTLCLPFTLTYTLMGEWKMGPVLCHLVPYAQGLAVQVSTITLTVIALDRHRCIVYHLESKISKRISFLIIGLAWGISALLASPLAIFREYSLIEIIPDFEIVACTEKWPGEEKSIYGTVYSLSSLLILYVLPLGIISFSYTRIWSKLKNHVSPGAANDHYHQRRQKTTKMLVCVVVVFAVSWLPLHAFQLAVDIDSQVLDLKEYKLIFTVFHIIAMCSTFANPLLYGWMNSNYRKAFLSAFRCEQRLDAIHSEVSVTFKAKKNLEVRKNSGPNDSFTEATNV
Format: cell membranes, Membrane. The settings on record: kan-ts.

A short description of assay [2]: DRUGMATRIX: Calcium Channel Type L, Phenylalkylamine radioligand binding (ligand: [3H] (-)-Desmethoxyverapamil (D-888)). It is filed as cell membranes, Rattus norvegicus, Wistar, Brain, Membrane. The following applies: Not Active = under 50% inhibition at 10 µM.
For assay [3], the target named is 5-hydroxytryptamine receptor 4 (Cavia porcellus, UniProt O70528). Format: cell membranes, Dunkin-Hartley, Striatum, Membrane. Note: in other assays of this panel Not Active means under 50% inhibition at 10 µM.
5-hydroxytryptamine receptor 4, sequence (O70528 whole entry): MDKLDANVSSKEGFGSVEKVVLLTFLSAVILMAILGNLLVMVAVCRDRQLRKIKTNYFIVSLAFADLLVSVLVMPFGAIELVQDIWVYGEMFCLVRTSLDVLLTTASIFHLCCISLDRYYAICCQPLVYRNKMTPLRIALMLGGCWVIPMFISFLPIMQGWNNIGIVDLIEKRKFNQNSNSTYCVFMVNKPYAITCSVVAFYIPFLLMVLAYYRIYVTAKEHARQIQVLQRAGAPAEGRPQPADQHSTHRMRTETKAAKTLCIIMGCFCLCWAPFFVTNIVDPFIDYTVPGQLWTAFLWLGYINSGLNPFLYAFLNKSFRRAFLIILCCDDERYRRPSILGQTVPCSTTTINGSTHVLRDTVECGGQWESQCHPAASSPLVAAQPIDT
Assay [4] has as its target T2, Alpha-2A adrenergic receptor (Homo sapiens, UniProt P08913). Note: in other assays of this panel Not Active means under 50% inhibition at 10 µM.
T2 sequence (P08913 whole entry): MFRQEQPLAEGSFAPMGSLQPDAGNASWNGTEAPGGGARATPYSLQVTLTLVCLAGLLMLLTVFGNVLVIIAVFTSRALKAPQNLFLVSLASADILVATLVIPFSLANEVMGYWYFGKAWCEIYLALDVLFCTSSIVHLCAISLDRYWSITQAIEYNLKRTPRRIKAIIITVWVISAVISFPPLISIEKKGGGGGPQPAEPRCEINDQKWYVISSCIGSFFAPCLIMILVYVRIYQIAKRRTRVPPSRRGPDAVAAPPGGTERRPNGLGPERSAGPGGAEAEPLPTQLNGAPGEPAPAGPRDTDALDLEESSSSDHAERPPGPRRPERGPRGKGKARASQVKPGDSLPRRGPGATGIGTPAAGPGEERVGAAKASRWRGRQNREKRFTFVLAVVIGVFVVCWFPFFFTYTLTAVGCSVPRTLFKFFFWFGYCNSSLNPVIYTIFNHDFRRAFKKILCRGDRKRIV
It is filed as cell membranes, Sf9, Membrane. The following applies: for Ki: read-out: Ki.

Assay [5] is described as follows: DRUGMATRIX: Imidazoline I2, Central radioligand binding (ligand: [3H] Idazoxan). It is filed as cell membranes, Rattus norvegicus, Wistar, Cerebral cortex, Membrane. The following applies: Not Active = under 50% inhibition at 10 µM.

In the case of `CC(NC(C)(C)C)C(=O)c1cccc(Cl)c1` (stereo not drawn) [BUPROPION], the IC50 entry in assay [1], in assay [2], in assay [3], in assay [4] (sf9) and in assay [5] was “Not Active” in each case. Moreover, the Ki entry in assay [2] and in assay [5] was “Not Active” in each case.
`C=C(C)C1(O)OC(=O)C=C1OC` (stereo not drawn) [PENICILLIC ACID]: the IC50 result in assay [1], in assay [2], in assay [3], in assay [4] (sf9) and in assay [5] was “Not Active” in each case. For the same compound, the Ki result in assay [2] and in assay [5] was “Not Active” in each case.
For the compound `CCCC1O[C@@H]2C[C@H]3[C@@H]4CCC5=CC(=O)C=C[C@]5(C)[C@H]4[C@@H](O)C[C@]3(C)[C@]2(C(=O)CO)O1` (stereo partly drawn) [BUDESONIDE], the IC50 result in assay [1], in assay [2], in assay [3], in assay [4] (sf9) and in assay [5] was “Not Active” each time. Moreover, the Ki result in assay [2] and in assay [5] was “Not Active” in each case.
For the compound `COCCc1ccc(OCC(O)CNC(C)C)cc1` (stereo not drawn) [METOPROLOL], the IC50 entry in assay [1], in assay [2], in assay [3], in assay [4] (sf9) and in assay [5] was “Not Active” in each case. Besides, the Ki entry in assay [2] and in assay [5] was “Not Active” each time.
As to `CC1CC(OC(=O)C(O)c2ccccc2)CC(C)(C)C1` (stereo not drawn) [CYCLANDELATE], the IC50 result in assay [1], in assay [2], in assay [3], in assay [4] (sf9) and in assay [5] was “Not Active” each time. Also, the Ki entry in assay [2] and in assay [5] was “Not Active” in each case.
For the compound `C1CCC(C(CC2CCCCN2)C2CCCCC2)CC1` (stereo not drawn) [PERHEXILINE], the IC50 entry in assay [1] was “Not Active”; in assay [2] (read-out: IC50), 1350 nM; in assay [3], “Not Active”; in assay [4] (sf9), “Not Active”; in assay [5] it was “Not Active”. Further, the Ki is 1310 nM in assay [2] (read-out: Ki) and “Not Active” in assay [5].
As to `CC(C)[C@H]1C(=O)N2CCC[C@H]2[C@]2(O)O[C@](NC(=O)[C@@H]3C=C4c5cccc6[nH]cc(c56)C[C@H]4N(C)C3)(C(C)C)C(=O)N12` [ERGOCORNINE], the IC50 result in assay [1] was “Not Active”; in assay [2], “Not Active”; in assay [3], “Not Active”; in assay [4] (read-out: IC50) it was 6.3 nM; in assay [5] (read-out: IC50), 4.49 nM. The Ki entry was “Not Active” in assay [2], 2.36 nM in assay [4] and 2.99 nM in assay [5] (read-out: Ki).
Consider `CC(C)[C@@]1(NC(=O)[C@@H]2C[C@@H]3c4cccc5[nH]cc(c45)C[C@H]3N(C)C2)O[C@@]2(O)[C@@H]3CCCN3C(=O)[C@H](Cc3ccccc3)N2C1=O.CS(=O)(=O)O` [DIHYDROERGOCRISTINE MESYLATE], for which the IC50 result in assay [1] is “Not Active”; in assay [2] it was “Not Active”; in assay [3] (read-out: IC50), 4910 nM; in assay [4] (read-out: IC50), 1.99 nM; in assay [5] (read-out: IC50), 5.43 nM. The Ki entry in assay [2] is “Not Active”; in assay [3] (read-out: Ki) it was 819 nM; in assay [4], 0.747 nM; in assay [5] (read-out: Ki), 3.62 nM.
With `C[C@]12CCC(=O)C=C1CC[C@@H]1[C@@H]2CC[C@@]2(C)[C@H]1CC[C@]2(C)O` [METHYLTESTOSTERONE], the IC50 result in assay [1], in assay [2], in assay [3], in assay [4] (sf9) and in assay [5] was “Not Active” each time. Further, the Ki entry in assay [2] and in assay [5] was “Not Active” in each case.
For `Nc1nc2c(ncn2COCCO)c(=O)[nH]1` [ACYCLOVIR], the IC50 entry in assay [1], in assay [2], in assay [3], in assay [4] (sf9) and in assay [5] was “Not Active” throughout. Besides, the Ki entry in assay [2] and in assay [5] was “Not Active” each time.
With `CC(C)CN(C[C@@H](O)[C@H](Cc1ccccc1)NC(=O)O[C@H]1CCOC1)S(=O)(=O)c1ccc(N)cc1`, the IC50 result in assay [1], in assay [2], in assay [3], in assay [4] (sf9) and in assay [5] was “Not Active” throughout. The Ki result in assay [2] and in assay [5] was “Not Active” in each case.
As to `CN(C)CCCN1c2ccccc2Sc2ccccc21` [PROMAZINE], the IC50 entry is “Not Active” in assay [1]; 1190 nM in assay [2] (read-out: IC50); “Not Active” in assay [3]; 337 nM in assay [4] (read-out: IC50); 1100 nM in assay [5] (read-out: IC50). The Ki in assay [2] (read-out: Ki) came out at 1160 nM; in assay [4], 126 nM; in assay [5] (read-out: Ki) it was 732 nM.
With `Cc1c(C)c2c(c(C)c1O)CC[C@@](C)(CCC[C@H](C)CCC[C@H](C)CCCC(C)C)O2` [ALPHA-TOCOPHEROL], the IC50 result in assay [1], in assay [2], in assay [3], in assay [4] (sf9) and in assay [5] was “Not Active” throughout. Moreover, the Ki entry in assay [2] and in assay [5] was “Not Active” throughout.
Consider `CN(C)c1nc(N(C)C)nc(N(C)C)n1` [ALTRETAMINE], for which the IC50 entry in assay [1], in assay [2], in assay [3], in assay [4] (sf9) and in assay [5] was “Not Active” each time. For the same compound, the Ki entry in assay [2] and in assay [5] was “Not Active” in each case.
Regarding `CNCCCN1c2ccccc2CCc2ccccc21` [DESIPRAMINE], the IC50 entry in assay [1], in assay [2], in assay [3], in assay [4] (sf9) and in assay [5] was “Not Active” throughout. Moreover, the Ki result in assay [2] and in assay [5] was “Not Active” each time.
Take CADMIUM ACETATE: the IC50 result in assay [1] was “Not Active”; in assay [2], “Not Active”; in assay [3], “Not Active”; in assay [4] (sf9, read-out: IC50), 4560 nM; in assay [5] it was “Not Active”. Moreover, the Ki result in assay [1], in assay [2], in assay [3] and in assay [5] was “Not Active” in each case.
Consider `COc1cc2c3cc1Oc1cc(ccc1O)C[C@@H]1c4c(cc(OC)c(O)c4Oc4ccc(cc4)C[C@@H]3N(C)CC2)CC[N+]1(C)C.[Cl-]`, for which the IC50 entry in assay [1], in assay [2], in assay [3], in assay [4] (sf9) and in assay [5] was “Not Active” each time. Besides, the Ki result in assay [2] and in assay [5] was “Not Active” throughout.
In the case of `CN(Cc1ccc(C(C)(C)C)cc1)Cc1cccc2ccccc12` [BUTENAFINE], the IC50 result in assay [1] is “Not Active”; in assay [2], “Not Active”; in assay [3], “Not Active”; in assay [4] (read-out: IC50) it was 3640 nM; in assay [5], “Not Active”. The Ki entry in assay [2] was “Not Active”; in assay [4], 1370 nM; in assay [5], “Not Active”.
Turning to `C[C@H](CCC(=O)O)[C@H]1CC[C@H]2[C@@H]3[C@H](O)C[C@@H]4C[C@H](O)CC[C@]4(C)[C@H]3C[C@H](O)[C@]12C` [CHOLIC ACID], the IC50 entry in assay [1], in assay [2], in assay [3], in assay [4] (sf9) and in assay [5] was “Not Active” throughout. Besides, the inhibition constant (Ki) entry in assay [2] and in assay [5] was “Not Active” in each case.
Take `CC1=C2C(=CO[C@H](C)[C@H]2C)C(O)=C(C(=O)O)C1=O` [CITRININ]: the IC50 entry in assay [1], in assay [2], in assay [3], in assay [4] (sf9) and in assay [5] was “Not Active” each time. The Ki entry in assay [2] and in assay [5] was “Not Active” each time.
Take `O=C(CCCN1CC=C(n2c(=O)[nH]c3ccccc32)CC1)c1ccc(F)cc1` [DROPERIDOL]: the IC50 entry in assay [1] is “Not Active”; in assay [2] (read-out: IC50), 4160 nM; in assay [3] (read-out: IC50), 3790 nM; in assay [4] (read-out: IC50) it was 2960 nM; in assay [5] (read-out: IC50), 2850 nM. In addition, the Ki was 4050 nM in assay [2] (read-out: Ki), 632 nM in assay [3] (read-out: Ki), 1110 nM in assay [4] and 1900 nM in assay [5] (read-out: Ki).
Turning to `CCCCc1nc(Cl)c(CO)n1Cc1ccc(-c2ccccc2-c2nnn[nH]2)cc1` [LOSARTAN], the IC50 entry in assay [1], in assay [2], in assay [3], in assay [4] (sf9) and in assay [5] was “Not Active” throughout. Besides, the Ki result in assay [2] and in assay [5] was “Not Active” each time.

For the origin of these results see ChEMBL document CHEMBL1909046, “DrugMatrix in vitro pharmacology data”.
